The structures appear in SMILES notation. Counter-ions that a name gives are not always drawn.

The first data set addresses T1, human CaR (Homo sapiens, UniProt P41180).
T1 construct: expressed in transfected cells; host or cells: CHO-K1 cells stably transfected with pMSRαneo-CaR (cDNA amplified from human kidney cDNA); membrane fraction used
T1 sequence (P41180 20-1078): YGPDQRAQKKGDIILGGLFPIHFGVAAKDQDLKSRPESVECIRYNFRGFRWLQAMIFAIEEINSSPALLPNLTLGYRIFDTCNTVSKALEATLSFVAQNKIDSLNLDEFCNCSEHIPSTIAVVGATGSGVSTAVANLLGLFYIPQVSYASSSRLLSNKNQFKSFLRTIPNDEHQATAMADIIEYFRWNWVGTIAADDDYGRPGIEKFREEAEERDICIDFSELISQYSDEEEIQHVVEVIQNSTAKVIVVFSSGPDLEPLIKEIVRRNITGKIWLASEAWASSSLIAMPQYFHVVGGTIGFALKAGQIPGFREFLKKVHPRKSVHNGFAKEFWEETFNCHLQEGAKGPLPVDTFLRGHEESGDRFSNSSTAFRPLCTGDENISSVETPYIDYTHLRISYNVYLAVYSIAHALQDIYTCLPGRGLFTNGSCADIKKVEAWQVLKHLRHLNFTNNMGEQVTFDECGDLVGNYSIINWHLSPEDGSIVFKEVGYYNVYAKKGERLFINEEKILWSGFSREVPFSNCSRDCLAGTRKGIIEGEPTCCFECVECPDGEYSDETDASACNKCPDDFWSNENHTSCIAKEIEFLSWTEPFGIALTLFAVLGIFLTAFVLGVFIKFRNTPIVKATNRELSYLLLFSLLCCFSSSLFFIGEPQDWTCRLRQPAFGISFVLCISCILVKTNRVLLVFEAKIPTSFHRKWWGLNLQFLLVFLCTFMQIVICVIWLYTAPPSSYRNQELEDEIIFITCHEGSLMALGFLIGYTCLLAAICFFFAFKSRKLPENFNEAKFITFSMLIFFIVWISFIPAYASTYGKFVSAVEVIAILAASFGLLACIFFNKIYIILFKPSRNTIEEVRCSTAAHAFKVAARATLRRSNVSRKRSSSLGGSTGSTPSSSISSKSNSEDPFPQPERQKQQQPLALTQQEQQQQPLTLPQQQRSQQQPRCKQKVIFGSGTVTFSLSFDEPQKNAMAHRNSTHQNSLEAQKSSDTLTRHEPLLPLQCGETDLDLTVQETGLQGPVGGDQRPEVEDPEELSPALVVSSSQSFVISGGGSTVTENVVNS
The data set is described as follows: [35S]-GTPγS binding assay in membrane fraction of human CaR-expressing CHO cells. Format: biochemical. The settings on record: test compound 1 μM; relative to binding with 6 mM calcium only (100×(t′−b)/(t−b)); compounds marked antagonist. As to the method: Preparation of membrane fraction is described bellow. The human CaR-expressing CHO cells were inoculated to a F500 flask in 1.8×10^5 cells/flask followed by cultivation for 2 days. The cells were scraped with 10 ml of Phosphate-Buffered Saline containing 0.02% EDTA. After centrifugation (2000 rpm, 10 min) of the cells, the cell pellet was resuspended into 12 ml of homogenate buffer solution (10 mM NaHCO3, 1 mM EDTA, 1× Protease inhibitor cocktail (pH 7.4)) and homogenized by Polytron™ (20000 rpm, 1 min). The cell debris was removed by centrifugation (2000 rpm, 10 min), and then the CaR-expressing cell membrane fraction was collected by ultracentrifugation (Beckman 70 Ti type rotor, 30000 rpm, 1 hour).
The GTPγS binding activity was measured as follows. Twenty μg of the CaR-expressing cell membrane was incubated with test compounds for 10 min. The assays were carried out at room temperature for an hour in a reaction solution mixture containing 20 mM HEPES (pH. 7.4), 100 mM NaCl, 1 mM MgCl2, 167 μg/ml DTT, 5 μM guanosine 5′-diphosphate, 0.4 nM [^35S]-guanosine 5′-(γ-thio)triphosphate ([^35S]-GTPγS) and 6 mM CaCl2. The mixture was filtered through a GF/C filter. After washing fourth with 300 μl of Phosphate-Buffered Saline, the amount of [^35S]-GTPγS bound to the filter was measured using a Top-count scintillation counter.
Effects of test compounds on [^35S]-GTPγS binding were expressed in percentage terms. This was calculated from the equation [100×(t′−b)]/(t−b) where t′, t and b are values of [^35S]-GTPγS binding (dpm), t′ in the presence of 6 mM calcium and the test compound, t in the presence of 6 mM calcium only and b in the absence of both 6 mM calcium and the test compound.
(In general: Binding of GTPγS marks nucleotide exchange on a G protein.)
For the compound `CCC(CC)(NC(=O)c1cnn2c1NC(c1ccccc1)CC2C(F)(F)F)c1ccc(C(F)(F)F)cc1` (stereo not shown) [Example 310, N-(1-ethyl-1-(4-(trifluoromethyl)phenyl)propyl)-5-phenyl-7-(trifluoromethyl)-4,5,6,7-tetrahydropyrazolo[1,5-a]pyrimidine-3-carboxamide], the “[35S]-GTPγS binding (%)” value was 0 (1 μM) %. In the case of `Cc1ccc(C(OC2CCN(C(=O)c3cnn4c3NC(c3ccccc3)CC4C(F)(F)F)CC2)c2ccc(C)cc2)cc1` (stereo not shown) [Example 312, 3-((4-(bis(4-methylphenyl)methoxy)-1-piperidinyl)carbonyl)-5-phenyl-7-(trifluoromethyl)-4,5,6,7-tetrahydropyrazolo[1,5-a]pyrimidine], the “[35S]-GTPγS binding (%)” value is 10 (1 μM) %. On to `COc1ccc(C(CNC(=O)c2cnn3c2NC(c2ccccc2)CC3C(F)(F)F)c2ccccc2)cc1` (stereo not shown) [Example 318, N-(2-(4-methoxyphenyl)-2-phenylethyl)-5-phenyl-7-(trifluoromethyl)-4,5,6,7-tetrahydropyrazolo[1,5-a]pyrimidine-3-carboxamide], for which the “[35S]-GTPγS binding (%)” value is 34 (1 μM) %. On to `CCC(CC)(NC(=O)c1cnn2c1NC(c1ccccc1)CC2(C)C)c1ccc(-c2ccsc2)cc1` (stereo not shown) [Example 423, N-(1-ethyl-1-(4-(3-thienyl)phenyl)propyl)-7,7-dimethyl-5-phenyl-4,5,6,7-tetrahydropyrazolo[1,5-a]pyrimidine-3-carboxamide], for which the “[35S]-GTPγS binding (%)” value was 0 (1 μM) %. Turning to `COc1ccc(C(NC(=O)c2cnn3c2NC(c2ccccc2)CC3C)c2ccc(OC)cc2)cc1` (stereo not shown) [Example 335, N-(bis(4-methoxyphenyl)methyl)-7-methyl-5-phenyl-4,5,6,7-tetrahydropyrazolo[1,5-a]pyrimidine-3-carboxamide], the “[35S]-GTPγS binding (%)” value is reported as 0 (1 μM) %. On the same count and under the same terms, for `CC1(C(F)(F)F)CC(c2ccccc2)Nc2c(C(=O)NC34CC5CC(CC(C5)C3)C4)cnn21` (stereo not shown) [Example 436, N-(1-adamantyl)-7-methyl-5-phenyl-7-(trifluoromethyl)-4,5,6,7-tetrahydropyrazolo[1,5-a]pyrimidine-3-carboxamide] the value was 12 (1 μM) %.

Staying with this data set, now noted: test compound 10 μM; relative to binding with 6 mM calcium only (100×(t′−b)/(t−b)); compound marked agonist.
In the case of `O=C(NCC(c1ccccc1)N1CCCC1)c1cnn2c1N[C@@H](c1ccccc1)C[C@H]2C(F)(F)F` (stereo in doubt) [Example 111, 5-phenyl-N-(2-phenyl-2-(1-pyrrolidinyl)ethyl)-7-(trifluoromethyl)-4,5,6,7-tetrahydropyrazolo[1,5-a]pyrimidine-3-carboxamide], the “[35S]-GTPγS binding (%)” value is reported as 256 (10 μM) %.

Test system in the next data set: not given
Assay: not given
Conditions: not given
On to `CCC(CC)(NC(=O)c1c(C)nn2c1NC(c1ccccc1OC)CC2(C)C)c1ccc(C)cc1` (stereo not shown) (as salt: HCl) [Example 965, N-(1-ethyl-1-(4-methylphenyl)propyl)-5-(2-methoxyphenyl)-2,7,7-trimethyl-4,5,6,7-tetrahydropyrazolo[1,5-a]pyrimidine-3-carboxamide], for which the melting point (usually the temperature, or range, at which the solid turns liquid) lay within 162 to 163 °C.

`CCC1(CC)C[C@H](OC)CN1C(=O)c1cnn2c1N[C@@H](c1ccccc1)CC2(C)C` [Example 1113, (5R)-3-(((4S)-2,2-diethyl-4-methoxy-1-pyrrolidinyl)carbonyl)-7,7-dimethyl-5-phenyl-4,5,6,7-tetrahydropyrazolo[1,5-a]pyrimidine]: the melting point was 122 to 124 °C. Regarding `CCC(CC)(NC(=O)c1cnn2c1NC(c1ccccc1)CC2C(F)(F)F)c1cccc(Br)c1` (stereo not shown) [Example 398, N-(1-(3-bromophenyl)-1-ethylpropyl)-5-phenyl-7-(trifluoromethyl)-4,5,6,7-tetrahydropyrazolo[1,5-a]pyrimidine-3-carboxamide], the melting point was in the range of 167 to 168 °C. In turn, `CCCC(CC)(CC)NC(=O)c1c(C)nn2c1N[C@@H](c1ccccc1)CC2(C)C` (as salt: HCl) [Example 1055, (5R)-N-(1,1-diethylbutyl)-2,7,7-trimethyl-5-phenyl-4,5,6,7-tetrahydropyrazolo[1,5-a]pyrimidine-3-carboxamide] yielded a melting point of 176 to 177 °C.

Take `CCC(CC)(NC(=O)c1c(C)nn2c1NC(c1ccccc1)CC2(C)C)c1ccc(C(=O)O)cc1` (stereo not shown) [Example 979, 4-(1-ethyl-1-(((2,7,7-trimethyl-5-phenyl-4,5,6,7-tetrahydropyrazolo[1,5-a]pyrimidin-3-yl)carbonyl)amino)propyl) benzoic acid]: the melting point was 244 to 246 °C.

Regarding `CCC(CC)(CC)NC(=O)c1cnn2c1NC(c1ccccc1)CC2(C)C` (stereo not shown) [Example 616, N-(1,1-diethylpropyl)-7,7-dimethyl-5-phenyl-4,5,6,7-tetrahydropyrazolo[1,5-a]pyrimidine-3-carboxamide], the melting point fell in the range of 93 to 94 °C.

Source of the values: patent publication US9447100B2, “Substituted pyrazolo[1,5-A] pyrimidines as calcium receptor modulating agents” (Takeda Pharmaceutical Company Limited, priority 2002, dated 2016).
